The record followed here is US12528838B2, “Cyclic dominant negative competence stimulating peptide analogs and methods of treating Streptococcus pneumoniae infections” (priority 2019, dated 2026).

Bridge positions count the residues as written; N and C are the ends. Square brackets hold non-standard residues; d marks the D form. Peptide text beside a SMILES is read from it. Dap = NC[C@H](N)C(=O)O Some results are limits rather than exact numbers.

In one series the target is ComD1 receptor (Streptococcus pneumoniae serotype 2, UniProt A0A0H2ZM50). Description: cell-based. Format: cell-based. The source says:
(§1) Biological evaluation of cyclic dnCSPs. The cyclic dnCSPs will be assessed for inhibition of competence induction using the β-gal, lux (FIG. 11) or luc (FIG. 15) reporter systems we have optimized for the analysis of a large number of signal variants in 96-well plates. All assays will be performed in triplicates and independently three times. Serial dilutions of dnCSPs will be conducted to determine the EC50 and IC50 values of promising dnCSPs through initial screening. Data from reporter assays will be analyzed using the GraphPad Prism software. The lead dnCSPs will be assessed for their therapeutic potential using multiple in vitro assays, including attenuation of ComX-induction (reporter systems), genetic transformation, allolysis (zymogram assays), and release of PLY (hemolysis & Western blots). Lastly, the pneumococcal competence system regulates biofilm formation, which is important for the pathogenesis of […]. The ability of the dnCSPs to inhibit biofilm formation will be evaluated after 24 hr of growth on 1% BSA coated coverslips placed in flat-bottom polystyrene tissue culture plates by staining with FilmTracer LIVE/DEAD Biofilm viability kit (Invitrogen, L10316), and visualized using a confocal microscope and Z-stacked to construct 3D-images.

A short description of series [1]: Proteolytic stability in trypsin/chymotrypsin solution, monitored by RP-HPLC. Format: in vitro ADME. On the procedure: FIG. 4E. […] All peptides were treated with trypsin/chymotrypsin (0.05 μg mL-1 enzyme concentration). RP-HPLC was used to monitor the progress of degradation. All peptides have a half-life about 3 hours. After 3 to 4 hours, some degradation product of CSP1-cyc-E1A(Dap6E10) start to precipitate out, resulting in the plateau in the curve.
(§2) FIGS. 14A-14D. Pharmacological properties of dnCSPs. (FIG. 14A) CSPs were treated with trypsin/chymotrypsin and their degradation monitored by HPLC. (FIG. 14B) CD1 mice (3/cohort, males & females) were intratracheally instilled 400 μg of native or dnCSPs. Mice were bronchial alveolar lavaged (BAL) at indicated times, and cell free BAL fluid (BALF) were analyzed by HPLC. […] (FIGS. 14C-14D) CD1 mice (5/cohorts, males & females) were intratracheally inoculated with MTD doses of native and dnCSPs (200 μg-20 mg/kg). […] Lung sections (FIGS. 14C-14D) and other organs were H&E stained. b=bronchioles; v=vessels.
The proteolytic stability of CSP1-E1A-cyc(Dap6E10) in Trypsin and Chymotrypsin solution was tested and the half-life measured. […] To test that, CSP1-E1A-des-K16K17-cyc(Dap6E10) was manually synthesized and evaluated its activity.
Pharmacological evaluation of lead cyclic dnCSPs. Before moving the most promising dnCSPs into mouse models, their pharmacological properties will be evaluated. As these are peptide-based drugs, first assessed are their metabolic stability. These assays will include prolonged incubation in physiologically-relevant buffers with varying pH values, stability towards degradation by trypsin and chymotrypsin, and stability in mouse lungs, plasma and serum to simulate in vivo proteolytic environments. Degradation of dnCSPs will be quantified using HPLC. […] The MTD will be defined as the maximum dose that causes a 15% loss of initial weight. […] Systemic toxicity will be assessed by performing blood chemistry and complete blood count (CBC) with differential. Major organs (e.g., liver, kidney, heart, lung, etc.) and sternum (to test genotoxicity) will be collected for histopathological and toxicological analysis. […]

For another series, the target named is ComD2 receptor (Streptococcus pneumoniae serotype 4, UniProt A0A0H2US84). Description: cell-based. Format: cell-based.
Sequence of ComD2 receptor (A0A0H2US84 entry or part of it): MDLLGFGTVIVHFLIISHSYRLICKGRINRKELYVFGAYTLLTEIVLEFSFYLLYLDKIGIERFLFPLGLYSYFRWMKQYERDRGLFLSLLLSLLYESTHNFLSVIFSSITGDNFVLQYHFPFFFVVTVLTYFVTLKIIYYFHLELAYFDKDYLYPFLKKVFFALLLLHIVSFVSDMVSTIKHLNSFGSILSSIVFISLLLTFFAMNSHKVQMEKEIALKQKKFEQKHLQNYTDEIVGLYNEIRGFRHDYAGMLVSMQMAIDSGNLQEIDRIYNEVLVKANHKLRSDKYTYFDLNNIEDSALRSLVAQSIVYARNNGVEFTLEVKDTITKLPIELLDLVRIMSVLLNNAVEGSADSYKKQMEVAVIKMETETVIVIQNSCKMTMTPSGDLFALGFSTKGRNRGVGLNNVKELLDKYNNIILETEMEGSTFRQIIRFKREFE
From the text: as §1, with “The cyclic dnCSPs will be assessed for inhibition of competence induction using the β-gal, lux (FIG. 11) or luc (FIG. 15) reporter systems we have optimized for the analysis of a large number of signal variants in 96-well plates.” left out

A short description of series [2]: Stability in mouse lungs (BAL fluid analysed by HPLC after intratracheal instillation). Format: in vivo, CD1 mice. The note with it: both sexes, CD1, cell-free bronchoalveolar lavage fluid (BALF), inhaled or intranasal, 400 ug, 400 μg intratracheally, FIG. 14B. How it is done:
as §2

Setting [3] is: in vitro, FIG. 14A, read-out: half-life (converted).

Sequence of ComD1 receptor (A0A0H2ZM50 entry or part of it): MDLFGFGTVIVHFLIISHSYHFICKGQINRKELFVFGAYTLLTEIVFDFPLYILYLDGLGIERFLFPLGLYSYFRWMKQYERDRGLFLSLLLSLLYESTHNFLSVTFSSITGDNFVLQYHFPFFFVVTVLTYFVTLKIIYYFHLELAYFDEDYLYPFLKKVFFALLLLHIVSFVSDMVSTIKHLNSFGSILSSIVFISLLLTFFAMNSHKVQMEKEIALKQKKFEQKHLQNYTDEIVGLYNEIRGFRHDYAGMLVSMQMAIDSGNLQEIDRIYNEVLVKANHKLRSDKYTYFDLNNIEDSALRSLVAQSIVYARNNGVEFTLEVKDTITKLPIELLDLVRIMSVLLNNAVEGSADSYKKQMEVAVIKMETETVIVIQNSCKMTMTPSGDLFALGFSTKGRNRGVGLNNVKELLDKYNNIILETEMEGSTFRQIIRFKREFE

As a reminder, the IC50 is the concentration that gives 50% inhibition. A high value points to weaker potency. Broadly, the half-life is the time needed for the level to fall by half in the phase considered. In the case of `CC[C@H](C)[C@H](NC(=O)[C@H](Cc1ccccc1)NC(=O)[C@@H]1CCC(=O)NC[C@H](NC(=O)[C@H](CO)NC(=O)[C@H](CC(C)C)NC(=O)[C@H](CCCNC(=N)N)NC(=O)[C@H](CCSC)NC(=O)[C@H](C)N)C(=O)N[C@@H](Cc2ccccc2)C(=O)N[C@@H](Cc2ccccc2)C(=O)N[C@@H](CCCNC(=N)N)C(=O)N1)C(=O)N[C@@H](CC(C)C)C(=O)N[C@@H](CCC(N)=O)C(=O)N[C@@H](CCCNC(=N)N)C(=O)N[C@@H](CCCCN)C(=O)N[C@@H](CCCCN)C(=O)O` [CSP1-E1A-cyc(Dap6E10), A-M-R-L-S-(Dap-F-F-R-E)-F-I-L-Q-R-K-K] (H-AMRLS[Dap]FFREFILQRKK-OH; lactam 6-10; N-terminus and C-terminus assumed), the half-inhibitory concentration (IC50) against ComD1 receptor stood at 75.8 nM; at ComD2 receptor, 182 nM. The half-life in series [1] (counting active degradation product CSP1-E1A-des-K16K17-cyc(Dap6E10), read-out: effective half-life) is greater than 4 h.
As to `CC[C@H](C)[C@H](NC(=O)[C@H](Cc1ccccc1)NC(=O)[C@H](CC(=O)O)NC(=O)[C@H](CCCNC(=N)N)NC(=O)[C@H](Cc1ccccc1)NC(=O)[C@H](Cc1ccccc1)NC(=O)[C@H](CCCCN)NC(=O)[C@H](CO)NC(=O)[C@H](CC(C)C)NC(=O)[C@H](CCCNC(=N)N)NC(=O)[C@H](CCSC)NC(=O)[C@@H](N)CCC(=O)O)C(=O)N[C@@H](CC(C)C)C(=O)N[C@@H](CCC(N)=O)C(=O)N[C@@H](CCCNC(=N)N)C(=O)N[C@@H](CCCCN)C(=O)N[C@@H](CCCCN)C(=O)O` [CSP1, reference compound], the half-life in series [2] is 1.5 h.
In the case of `CC[C@H](C)[C@H](NC(=O)[C@H](Cc1ccccc1)NC(=O)[C@H](CC(=O)O)NC(=O)[C@H](CCCNC(=N)N)NC(=O)[C@H](Cc1ccccc1)NC(=O)[C@H](Cc1ccccc1)NC(=O)[C@H](CCCCN)NC(=O)[C@H](CO)NC(=O)[C@H](CC(C)C)NC(=O)[C@H](CCCNC(=N)N)NC(=O)[C@H](CCSC)NC(=O)[C@H](C)N)C(=O)N[C@@H](CC(C)C)C(=O)N[C@@H](CCC(N)=O)C(=O)N[C@@H](CCCNC(=N)N)C(=O)N[C@@H](CCCCN)C(=O)N[C@@H](CCCCN)C(=O)O` [CSP1-E1A, A-M-R-L-S-K-F-F-R-D-F-I-L-Q-R-K-K], the half-life in series [2] and in series [1] (setting [3]) was 1.5 h throughout. The IC50 against ComD2 receptor is greater than 10000 nM.
`CC[C@H](C)[C@H](NC(=O)[C@H](CCCNC(=N)N)NC(=O)[C@H](CCSC)NC(=O)[C@H](C)N)C(=O)N[C@@H](CO)C(=O)N[C@@H](CCCNC(=N)N)C(=O)N[C@H](C(=O)N[C@H](C(=O)N[C@@H](CC(C)C)C(=O)N[C@H](CC(=O)O)C(=O)N[C@@H](Cc1ccccc1)C(=O)N[C@@H](CC(C)C)C(=O)N[C@@H](Cc1ccccc1)C(=O)N[C@@H](CC(C)C)C(=O)N[C@@H](CCCNC(=N)N)C(=O)N[C@@H](CCCCN)C(=O)N[C@@H](CCCCN)C(=O)O)[C@@H](C)CC)[C@@H](C)CC` [CSP2-E1Ad10, A-M-R-I-S-R-I-I-L-d-F-L-F-L-R-K-K] (H-AMRISRIIL[dD]FLFLRKK-OH; N-terminus and C-terminus assumed): the half-life in series [2] and in series [1] (setting [3]) was greater than 3 h each time.
Take `CC[C@H](C)[C@H](NC(=O)[C@H](CCCNC(=N)N)NC(=O)[C@H](CCSC)NC(=O)[C@@H](N)CCC(=O)O)C(=O)N[C@@H](CO)C(=O)N[C@@H](CCCNC(=N)N)C(=O)N[C@H](C(=O)N[C@H](C(=O)N[C@@H](CC(C)C)C(=O)N[C@H](CC(=O)O)C(=O)N[C@@H](Cc1ccccc1)C(=O)N[C@@H](CC(C)C)C(=O)N[C@@H](Cc1ccccc1)C(=O)N[C@@H](CC(C)C)C(=O)N[C@@H](CCCNC(=N)N)C(=O)N[C@@H](CCCCN)C(=O)N[C@@H](CCCCN)C(=O)O)[C@@H](C)CC)[C@@H](C)CC` [CSP2-d10, E-M-R-I-S-R-I-I-L-d-F-L-F-L-R-K-K] (H-EMRISRIIL[dD]FLFLRKK-OH; N-terminus and C-terminus assumed): the half-life in series [2] was 2.5 h.
The EC50 is the midpoint of the concentration-response curve. A lower EC50 goes with a more potent agent. In the case of `CC[C@H](C)[C@H](NC(=O)[C@H](Cc1ccccc1)NC(=O)[C@@H]1CCC(=O)NCCCC[C@H](NC(=O)[C@H](CO)NC(=O)[C@H](CC(C)C)NC(=O)[C@H](CCCNC(=N)N)NC(=O)[C@H](CCSC)NC(=O)[C@@H](N)CCC(=O)O)C(=O)N[C@@H](Cc2ccccc2)C(=O)N[C@@H](Cc2ccccc2)C(=O)N[C@@H](CCCNC(=N)N)C(=O)N1)C(=O)N[C@@H](CC(C)C)C(=O)N[C@@H](CCC(N)=O)C(=O)N[C@@H](CCCNC(=N)N)C(=O)N[C@@H](CCCCN)C(=O)N[C@@H](CCCCN)C(=O)O` [CSP1-cyc(K6E10)], the EC50 at ComD1 receptor is 350 nM; at ComD2 receptor, greater than 1000 nM.
